The values that follow are results of earlier work, collected in patent publication US20090306209A1, “ENTERIC-COATED FORMULATIONS OF POLYETHYLENE GLYCOL AND ONE OR MORE SOLUBLE AMINO ACIDS FOR ORAL INGESTION AND ENHANCED UPTAKE OF SAME” (priority 2008, published 2009).

Like-named read-outs stand apart in the source and are kept apart here.

For this data set the following is noted: for solubility in water (in words): temperature not stated.

Take `Cl.NC(=O)CC[C@H](N)C(=O)O` [L-glutamine-HCl]: the “solubility in water (in words)” value was “very soluble in water”.

For `NC(=O)CC[C@H](N)C(=O)O` [L-glutamine], where the note is “water at 30° C.”, the solubility in water is listed as 5 grams/100 ml.

`CC(C)C[C@H](N)C(=O)O.Cl` [L-leucine.HCl]: the “solubility in water (in words)” value is given as “very soluble in water”.

Consider `CC(C)C[C@H](N)C(=O)O` [L-leucine], for which the solubility in water (water at 25° C.) was 2.4 g/100 ml.
